The source made the active and inactive calls. Bounds are passed on as bounds.

For assay [1], the target named is T1, Carboxy-terminal domain RNA polymerase II polypeptide A small phosphatase 1 (Homo sapiens, UniProt Q9GZU7).
T1 sequence (Q9GZU7 whole entry): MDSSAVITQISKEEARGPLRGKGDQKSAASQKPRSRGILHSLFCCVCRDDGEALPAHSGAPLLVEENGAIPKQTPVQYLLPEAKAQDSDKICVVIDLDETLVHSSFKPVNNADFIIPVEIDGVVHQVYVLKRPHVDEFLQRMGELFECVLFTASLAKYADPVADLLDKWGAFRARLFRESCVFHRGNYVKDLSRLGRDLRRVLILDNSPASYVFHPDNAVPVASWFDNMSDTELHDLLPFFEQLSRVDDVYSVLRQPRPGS
Briefly: inhibitors of CTDSP1, concentration-response testing, biochemical assay, absorbance-based, actives from ultra-high-throughput screening (AID 540297). Type of assay: functional.

Assay [2] can be described thus: inhibitors of intracellular T. cruzi replication, confirmation, NIH3T3 host cells, beta-gal luminescence (AID 2044).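 Also: intracellular parasites grown in NIH/3T3 mouse fibroblasts as host cells; luminescent beta-galactosidase reporter signal from transgenic T. cruzi replicating inside host cells; inhibitors lower the luminescence signal.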 It counts as functional, cell-based.
A short description of a further assay: cells. It counts as functional.
The nature of assay [3]: cytotoxicity toward NIH3T3 fibroblasts, dose response, counter-screen, cell-based, ATP luminescence, mouse fibroblasts (AID 2010).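 Also: cells exposed to compound for about 90 hours before reading.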 It counts as functional.
The target in assay [4] is Eukaryotic translation initiation factor 4E (Mus musculus, UniProt P63073). Briefly: eIF4E–eIF4G protein interaction inhibitors, dose response, biochemical, TR-FRET (AID 855).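 Also: potency for disrupting eIF4E binding to eIF4GI seen as loss of FRET.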 It counts as functional.
Sequence of Eukaryotic translation initiation factor 4E (P63073 whole entry): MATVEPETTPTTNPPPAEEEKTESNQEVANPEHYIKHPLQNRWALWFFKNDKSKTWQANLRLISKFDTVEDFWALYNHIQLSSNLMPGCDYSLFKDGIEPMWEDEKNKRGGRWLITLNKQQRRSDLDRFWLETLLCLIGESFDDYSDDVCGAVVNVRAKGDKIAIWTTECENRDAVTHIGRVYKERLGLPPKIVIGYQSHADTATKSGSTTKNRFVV
In assay [5] the target is T2, Microphthalmia-associated transcription factor (Homo sapiens, UniProt O75030).
T2 sequence (O75030 whole entry): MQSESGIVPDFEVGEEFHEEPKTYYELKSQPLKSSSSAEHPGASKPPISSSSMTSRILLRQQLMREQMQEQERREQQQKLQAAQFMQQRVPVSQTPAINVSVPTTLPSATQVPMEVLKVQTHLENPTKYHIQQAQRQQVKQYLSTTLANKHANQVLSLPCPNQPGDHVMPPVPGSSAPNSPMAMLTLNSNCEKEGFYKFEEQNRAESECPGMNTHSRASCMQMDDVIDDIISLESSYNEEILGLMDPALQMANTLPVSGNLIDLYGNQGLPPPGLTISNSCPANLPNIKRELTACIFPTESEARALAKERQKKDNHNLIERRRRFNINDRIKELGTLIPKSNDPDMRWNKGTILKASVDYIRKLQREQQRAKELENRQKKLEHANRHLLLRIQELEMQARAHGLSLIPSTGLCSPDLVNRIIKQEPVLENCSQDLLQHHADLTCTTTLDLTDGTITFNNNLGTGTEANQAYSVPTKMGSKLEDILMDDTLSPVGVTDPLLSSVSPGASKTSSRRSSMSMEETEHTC
As to the kind of experiment: TRPM1 promoter luciferase signal decrease, dose response, MITF inhibitor project, cell-based, SK-MEL-5, cherry-picked, set 3 (AID 493073).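 Also: SK-MEL-5 melanoma cells with luciferase driven by the MITF target TRPM1 promoter.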 Type of assay: functional.

Assay [6] in a line: NIH-3T3 fibroblast cytotoxicity, dose response, cytotoxicity control, cell-based, fluorescence, Alamar Blue, secondary assay (AID 2327).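 Also: NIH-3T3 mouse fibroblasts cultured with fluconazole at 8 µg/mL.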 Type of assay: functional.
Assay [7] addresses Induced myeloid leukemia cell differentiation protein Mcl-1 (Homo sapiens, UniProt Q07820). It counts as functional.
In the next assay the test system is Streptococcus. As to the kind of experiment: Group A Streptococcus viability loss, dose response, counter-screen for streptokinase expression inhibitor project, luminescence, BacTiterGlo (AID 1915).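 Also: potency for reduction of bacterial viability or growth.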 Type of assay: functional, organism-based.
In assay [8] the test system is Streptococcus sp. 'group A'. As to the kind of experiment: growth inhibition of control SK(-) GAS strain, dose response, counter-screen for streptokinase expression inhibitor project, luminescence, kanamycin, BacTiterGlo, confirmation (AID 1900). It counts as functional, organism-based. The settings on record: read-out: EC50.
The next assay addresses Large T antigen (Simian virus 40, UniProt P03070). Type of assay: functional, Betapolyomavirus macacae.
Assay [9] is described as follows: inhibitors of firefly luciferase expression or activity, dose response, H4 neuroglioma cells, luminescence (AID 1990). It counts as functional, cell-based.
The nature of assay [10]: Luminescence Cell-Based Dose Response HTS to Identify Inhibitors of 5'UTR Stem-Loop Driven Prion Protein mRNA Translation in H4 Neuroglioblastoma Cells. [Related pubchem assays: 1827 (Project Summary), 1813 (Primary HTS)]. Type of assay: functional.
A short description of assay [11]: Shn3 3'UTR reporter inhibitors, dose response, cell-based, Clone20 osteoblasts, firefly luciferase, cherry-picked (AID 624132).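 Also: firefly luciferase luminescence from reporter carrying the Shn3 3'UTR in osteoblasts.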 It counts as functional.
Assay [12] can be described thus: inhibitors of SNCA 5'UTR-driven reporter translation, confirmation, H4 neuroglioma cells, luminescence (AID 1988). It counts as functional, cell-based.
The target in assay [13] is Luciferin 4-monooxygenase (Photinus pyralis, UniProt P08659). As to the kind of experiment: firefly luciferase enzyme inhibitors, dose response, biochemical, luminescence (AID 1891).
Sequence of Luciferin 4-monooxygenase (P08659 whole entry): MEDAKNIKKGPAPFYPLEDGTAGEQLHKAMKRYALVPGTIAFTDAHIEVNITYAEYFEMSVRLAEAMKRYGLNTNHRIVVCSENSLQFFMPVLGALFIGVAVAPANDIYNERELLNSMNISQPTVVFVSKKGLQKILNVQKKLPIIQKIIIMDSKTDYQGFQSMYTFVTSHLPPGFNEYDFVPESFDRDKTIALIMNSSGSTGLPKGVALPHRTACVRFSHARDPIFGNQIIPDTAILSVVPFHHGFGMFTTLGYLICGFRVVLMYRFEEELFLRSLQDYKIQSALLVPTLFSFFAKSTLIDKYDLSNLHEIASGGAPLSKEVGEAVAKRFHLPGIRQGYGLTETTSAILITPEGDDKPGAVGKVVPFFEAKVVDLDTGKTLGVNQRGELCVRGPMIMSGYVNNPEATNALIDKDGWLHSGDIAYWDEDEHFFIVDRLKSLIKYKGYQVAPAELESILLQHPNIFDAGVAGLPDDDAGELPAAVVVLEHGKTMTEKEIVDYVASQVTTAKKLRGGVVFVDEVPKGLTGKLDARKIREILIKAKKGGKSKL
The nature of assay [14]: Luminescence Cell-Based Dose Confirmation HTS to Identify Inhibitors of Platelet Dense Granule Release. [Related pubchem assays: 1663 (Primary HTS), 1678 (Summary of Project)]. Type of assay: functional.
Assay [15] is described as follows: inhibitors of HIV Env-driven cell fusion, dose response, cherry-pick (AID 652057). Type of assay: functional, cell-based.
Assay [16] deals with T3, Rac GTPase-activating protein 1 (Homo sapiens, UniProt Q9H0H5).
T3 sequence (Q9H0H5 whole entry): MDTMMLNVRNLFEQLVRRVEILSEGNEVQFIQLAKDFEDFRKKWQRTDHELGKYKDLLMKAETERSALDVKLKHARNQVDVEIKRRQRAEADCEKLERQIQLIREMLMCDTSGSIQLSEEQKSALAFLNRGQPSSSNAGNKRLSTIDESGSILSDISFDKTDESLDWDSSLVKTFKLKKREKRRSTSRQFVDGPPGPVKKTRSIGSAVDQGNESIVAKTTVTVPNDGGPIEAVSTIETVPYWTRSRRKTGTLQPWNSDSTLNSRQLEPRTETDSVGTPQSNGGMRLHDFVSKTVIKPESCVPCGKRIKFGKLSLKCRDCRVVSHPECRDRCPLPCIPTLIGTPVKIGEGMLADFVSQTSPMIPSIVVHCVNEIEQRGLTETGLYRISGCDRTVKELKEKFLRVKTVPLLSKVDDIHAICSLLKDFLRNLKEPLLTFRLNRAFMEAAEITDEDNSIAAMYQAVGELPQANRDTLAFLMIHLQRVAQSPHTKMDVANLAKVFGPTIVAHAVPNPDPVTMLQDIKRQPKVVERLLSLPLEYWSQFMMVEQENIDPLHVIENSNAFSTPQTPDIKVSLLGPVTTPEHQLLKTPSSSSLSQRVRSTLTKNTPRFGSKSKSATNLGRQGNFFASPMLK
Briefly: MgcRacGAP GTPase-activating activity inhibitors, confirmation, biochemical, ADP Hunter fluorescence, primary and confirmatory (AID 624330). It counts as functional.

Assay [17] can be described thus: C. albicans growth with fluconazole, confirmation, fluorescence, retest (AID 2467). Type of assay: functional, cell-based.

Sequence of Large T antigen (P03070 whole entry): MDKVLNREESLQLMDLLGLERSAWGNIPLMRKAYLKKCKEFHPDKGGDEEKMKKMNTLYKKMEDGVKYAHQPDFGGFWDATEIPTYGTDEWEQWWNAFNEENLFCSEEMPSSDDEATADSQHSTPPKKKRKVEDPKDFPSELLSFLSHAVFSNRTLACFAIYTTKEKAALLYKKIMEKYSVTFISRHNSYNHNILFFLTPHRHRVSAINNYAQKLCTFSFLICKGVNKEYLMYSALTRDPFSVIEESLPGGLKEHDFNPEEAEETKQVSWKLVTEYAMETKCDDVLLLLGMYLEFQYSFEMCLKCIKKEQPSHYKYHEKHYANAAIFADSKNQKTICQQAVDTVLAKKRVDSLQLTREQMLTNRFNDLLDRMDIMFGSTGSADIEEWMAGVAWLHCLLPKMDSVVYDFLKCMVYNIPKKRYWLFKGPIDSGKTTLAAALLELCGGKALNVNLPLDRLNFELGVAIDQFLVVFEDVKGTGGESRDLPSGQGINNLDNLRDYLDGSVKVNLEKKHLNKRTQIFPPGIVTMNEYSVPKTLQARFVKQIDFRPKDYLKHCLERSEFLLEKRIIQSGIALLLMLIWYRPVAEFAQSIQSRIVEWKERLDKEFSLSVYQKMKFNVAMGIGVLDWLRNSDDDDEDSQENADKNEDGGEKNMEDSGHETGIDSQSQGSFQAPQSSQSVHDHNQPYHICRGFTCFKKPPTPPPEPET
Sequence of Induced myeloid leukemia cell differentiation protein Mcl-1 (Q07820 whole entry): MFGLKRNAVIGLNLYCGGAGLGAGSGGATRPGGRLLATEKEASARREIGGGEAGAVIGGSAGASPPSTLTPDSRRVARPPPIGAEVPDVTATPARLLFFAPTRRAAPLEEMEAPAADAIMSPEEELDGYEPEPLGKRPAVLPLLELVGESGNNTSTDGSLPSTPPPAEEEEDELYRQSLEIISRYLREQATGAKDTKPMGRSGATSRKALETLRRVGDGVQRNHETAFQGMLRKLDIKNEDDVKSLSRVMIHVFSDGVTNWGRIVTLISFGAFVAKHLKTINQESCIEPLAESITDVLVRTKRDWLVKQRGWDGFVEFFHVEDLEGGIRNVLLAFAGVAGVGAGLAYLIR

On to `O=C(c1ccc([N+](=O)[O-])cc1)c1cc2ccc(O)cc2oc1=O`, for which, in assay [1], the IC50 is 10.8 µM (active).

Consider `O=[N+]([O-])c1ccc(CN2CCN(c3ccc(Cl)cc3)CC2)o1`, for which the EC50 is 0.758 µM (active) in assay [2] and > 60 µM (not active) in assay [3]. Also, in the assay “cells”, the 50% inhibitory concentration (IC50) is < 0.1 µM (active). For the molecule `CCOC(=O)c1c(-c2cccc([N+](=O)[O-])c2)csc1NC(=O)CCCOc1ccccc1`, the IC50 in assay [4] is > 64 µM (inactive). As for `COc1cnn(C2CCCCC2)c(=O)c1O`, the 50% inhibitory concentration (IC50) in “cells” was 33.5 µM (active). As to `COc1cc(/C=N/NC2=NC(=O)C(CC(=O)O)S2)ccc1OCc1ccc(Cl)cc1` (stereo unspecified), the half-maximal inhibitory concentration (IC50) in assay [1] is 12.4 µM (active).

As for `COc1ccc(C(=O)Nc2ccccc2C(N)=O)cc1`, in [4], the IC50 is > 64 µM (inactive). For the molecule `CC(C)(C)NC(=O)CCN(/N=C/c1ccc([N+](=O)[O-])o1)C1=NS(=O)(=O)c2ccccc21`, the concentration at half-maximal activity (AC50) in assay [5] was 7.18 µM (active). With `CC1CCCCN1S(=O)(=O)c1ccc(NC(=O)c2cccc(-n3cnnn3)c2)cc1` (stereo unspecified), the EC50 in assay [6] was > 150 µM (inactive). On to `Cc1ccc2nc(N3C(=O)C(O)=C(C(=O)c4cc5ccccc5o4)C3c3cccs3)sc2c1` (stereo unspecified), for which the IC50 in assay [7] was 2.37 µM (active). The 50% effective concentration (EC50) is 7.6 µM (active) in the assay on Streptococcus and 1.39 µM (active) in assay [8].

Regarding `COc1ccc2[nH]c(=O)c(CN(CCN3CCCC3)C(=O)Nc3ccccc3Cl)cc2c1`, the IC50 in assay [4] was > 64 µM (inactive). Still for that read-out and setting: under `CCCCC(=O)Nc1ccc2oc(-c3ccncc3)nc2c1` stands > 64 µM (inactive). Consider `COC(=O)[C@@]1(Cc2ccccc2)[C@H]2c3cc(C(=O)N4CCCC4)n(CCSCCO)c3C[C@H]2CN1C(=O)c1ccccc1`, for which the IC50 in assay [7] is 1.87 µM (not active). Turning to `CC(=O)Oc1c(C(=O)c2nnc(C)o2)c(=O)n(Cc2ccccc2)c2ccccc12`, in assay [5], the AC50 is 6.98 µM (active). As for `COc1cc(Cn2nnc3ccccc32)ccc1O`, the IC50 at Large T antigen is 7.55 µM (active). Regarding `COc1ccc2c(c1OC)C(=O)N1c3ccccc3C(=O)N(c3ccccc3F)C21` (stereo unspecified), the half-maximal effective concentration (EC50) is > 120 µM (not active) in [9], 13.1 µM (active) in assay [10] and 12 µM (active) in assay [12]. For the same molecule, in assay [11], the concentration at half-maximal activity (AC50) is 11.6 µM (active). On to `O=C1NC(=O)C(=Cc2ccc(-c3ccc(Cl)cc3)o2)C(=O)N1`, for which, in the assay “cells”, the half-inhibitory concentration (IC50) is > 50 µM (active). Moreover, in assay [5], the AC50 is 9.2 µM (active). Turning to `COc1ccccc1NC(=O)c1cc2n(n1)C(C(F)(F)F)CC(c1ccc3c(c1)OCO3)N2` (stereo unspecified), the EC50 in [13] and in assay [14] was > 112 µM (not active) each time. `O=C(Oc1ccc(/C=N/O)cc1)c1ccccc1Cl`: in “cells”, the half-inhibitory concentration (IC50) was 22.6 µM (active). With `Cc1ccc(S(=O)(=O)Nc2ccc3c(c2)CC(=O)N([C@@H](C)CO)C[C@H](C)[C@@H](CN(C)Cc2ccc(-c4ccccc4)cc2)O3)cc1`, the half-maximal activity concentration (AC50) in assay [15] is 20.2 µM (active). On to `O=C(CCS(=O)(=O)c1cccc2nsnc12)NCc1ccccc1Cl`, for which the IC50 in assay [4] is > 64 µM (inactive).

As for `O=C1/C(=C\c2ccc(O)c(O)c2)N=C2CCCCCN12`, the 50% inhibitory concentration (IC50) was 17.4 µM (active) in assay [16] and 6.68 µM (active) on Large T antigen. On to `COc1cc(NC(=O)c2ccccc2)c(OC)cc1NC(=O)Cc1cccs1`, for which the IC50 in assay [4] was 50 µM (inactive); in assay [1], 3.86 µM (active).

Consider `O=C1c2ccccc2C(=O)N1/N=C/c1ccc(O)c(O)c1O`, for which the concentration for half-maximal inhibition (IC50) in assay [7] is 2.28 µM (active).

As to `COc1ccc(C(=O)NC(=O)Nc2cc(C)ccn2)cc1`, the EC50 in assay [9] is 1.67 µM (active); in assay [10], 0.533 µM (active); in assay [12], 0.367 µM (active). For the same molecule, the AC50 in assay [5] was 4.96 µM (active). Regarding `CSc1ccc(/C=N/NC(=O)c2ccc(C)c(C)c2)cc1`, the IC50 in assay [1] is 9.17 µM (active). For the molecule `Cc1ccc(S(=O)(=O)CC(C)N2CCOCC2)c(S(=O)(=O)CC(C)N2CCOCC2)c1` (stereo unspecified), the EC50 is > 160 µM (inactive) in [6] and 6.26 µM (active) in assay [17]. Consider `C[C@@H](O)C1NC(=O)[C@H](CCCCN)NC(=O)c2cc([N+](=O)[O-])cc(I)c2NCCC[C@@H](C(N)=O)NC1=O` (stereo partly specified), for which the IC50 in [4] was > 64 µM (inactive). As for `Cc1ccc(OC(S)=Nc2ccc(O)cc2)cc1`, the IC50 in [16] was 31.6 µM (active); on Large T antigen, 13 µM (active).

In the case of `CCOC(=O)C1CCN(C(c2ccccn2)c2c(C)[nH]c3ccccc23)CC1` (stereo unspecified), the EC50 is > 112 µM (not active) in assay [13] and 16.5 µM (active) in assay [14].

Consider `CCc1n[nH]c(SCC(=O)Nc2ccc(N(C)C)cc2)n1`, for which, on Large T antigen, the concentration for half-maximal inhibition (IC50) is 15.5 µM (active). With `CCn1c(SCC(=O)N(C)c2c(N)n(Cc3ccccc3)c(=O)[nH]c2=O)nc2ccccc21`, the EC50 in assay [13] and in [14] was > 112 µM (not active) throughout. `O=C(CCS(=O)(=O)c1ccc(Br)cc1)NCc1ccc(F)cc1`: the IC50 in assay [1] was 7.9 µM (active).

As for `COC(=O)c1ccc(NC(=O)C(=O)c2cccn2C)cc1`, the EC50 was 1.74 µM (active) in assay [13] and 2.39 µM (active) in [14]. On to `CCCOC(=O)c1ccc(OCC(O)CN2CCN(C(=O)c3ccccc3)CC2)cc1` (stereo unspecified), for which, in [4], the IC50 is > 64 µM (inactive). For the molecule `CCn1c(C)nc2cc(C(=O)N/N=C/c3ccc(OC)c(O)c3)ccc21`, the half-maximal inhibitory concentration (IC50) in assay [16] was 80 µM (active); at Large T antigen, 4.76 µM (active). Turning to `CC(C)c1cc(C(=O)Nc2cccc(Cl)c2)no1`, the IC50 in assay [4] is > 64 µM (inactive).

(Values after ChEMBL document CHEMBL1201862, “PubChem BioAssay data set” (2004).)
